# Data published in patent publication US9931332B2, “Compositions and methods for treating primary effusion lymphoma” (University of Southern California, priority 2014, dated 2018).
# Columns and labels:
# BC-3 and BCBL-1 cells [1] = test: Combination index (Chou and Talalay, calcusyn), MTS viability; format: cell-based; details: low doses, 12 combinations each, all combination doses tested
# Description: (§1) Cells from exponentially growing cultures were plated in untreated flat-bottom 96 well plates at a density of 5×10^3 cells/well, treated with an increasing concentration of the drugs and subsequently assessed for cell viability using the MTS reagent (3-4,5-dimethylthiazol-2yl)-5-(3-carboxy-methoxyphenyl)-2-(4-sulfophenyl)-2H-tetrazolium, inner salt) following the manufacturer's instructions (Promega). Percent cell survival was calculated based on the reading of cells grown in the presence of DMSO control. Experiments were performed in triplicate and have been repeated 2-3 times.
# BC-3 cells = test: PEL orthotopic tumor model; format: in vivo, NOD.SCID mice; design: dose or concentration left out as unconfirmed; details: once daily for 28 days, intraperitoneally
# Description: A total of 2×10^7 BC-3 cells were injected intraperitoneally into female NOD.SCID mice (NCI Frederick, 6 weeks old). 5 days after tumor cells inoculation the mice were randomly divided in to 4 groups (n=7 each). […] (once daily), JQ-1 50 mg/kg b.w. (once daily) and the combination were administered intraperitoneally daily for 28 days. Then the animals were monitored for survival. Body weight gain was measured once in 3 days as a surrogate measure of tumor progression (Qin et al., 2014). The experiments were performed following the guidelines of institutional animal ethics committee.
# [2] = test system: IKZF1 (Ikaros), IKZF3 (Aiolos); test: Immunoblot of IKZF1 and IKZF3 expression; format: cell-based; details: BC-3 and BCBL-1, MLN4924 pretreatment 1 h then IMiDs 15 h
# Description: (§2) Cells were lysed in lysis buffer containing 20 mM sodium phosphate (pH 7.4), 150 mM NaCl, 0.1% Triton X-100, 0.2 M PMSF, and 10% glycerol supplement with a protease inhibitor mixture tablet (Roche). Whole cell extracts were resolved by SD-polyacrylamide gel electrophoresis, transferred to nitrocellulose membrane, and probed with the indicated primary antibodies. Bound antibodies were detected with IRdye 680 or 800 (Licor biosciences) and blots were scanned with licor odyssey CLx imaging system (Licor biosciences). Primary antibodies used in these experiments were from the following sources: PARP (9542), NF-κB2 (p100/p52; 4882) from Cell Signaling; IRF4 (6059), IKZF1 (13039), HSP90 (69703), IKKα/β (7607), RELB (226) from Santa Cruz Biotechnology; MYC (1472-1, Epitomics); tubulin (T9026), cereblon (HPA045910) from Sigma; GAPDH (1107018, Ambion), IKZF3 (6255, Imgenex) and BRD4 (a gift from Dr. Peter Howley, Harvard Medical School).
# PEL cell lines = test: Cell viability, MTS assay; format: cell-based; details: for PEL cell lines sensitive within physiologically achievable doses: 7 PEL cell lines, increasing concentrations; for sensitivity of the 5 PEL cell lines to recombinant IFN: BC-3, BCBL-1, JSC-1, BC-1 and VG-1, 5 days
# Description: as §1
# IL-6 = IL-6 ELISA in supernatants of BC-3 cells; format: cell-based, Human; details: 12, 24 and 48 h
# Description: IL-6 was measured in supernatants using BD OptEIA™ Human IL-6 ELISA set as per manufacturer's instructions.
# [3] = test system: IKKα/β, p100/p52 and RELB; test: Immunoblot of NF-κB proteins; format: cell-based; details: BC-3, BCBL-1, JSC-1 and DG-75 cells, increasing doses
# Description: as §2
# PEL cells = test: Real-time qRT-PCR of mRNA expression; format: cell-based
# Description: Real-time quantitative reverse transcript-polymerase chain reaction (qRT-PCR) was performed with SYBR Green using gene-specific PCR primers. Samples were run in triplicate, and PCR was performed by an ABI Step One Plus thermocycler (Applied Biosystems). GAPDH was used as housekeeping gene and qRT-PCR data (Ct values) was analyzed using the 2^−ΔΔCT method as described earlier (Zhao et al., 2007). The qRT-PCR data was presented as fold change in target gene expression±standard error.
# PEL = details: treated for 18 months so far (Antar et al., 2014); cited from earlier work
# BC-3 and BCBL-1 cells [4] = test: Genome-wide microarray analysis; details: 5 μM, 24 h
# Description: Two technical replicates per cell line per condition (8 samples total) were assayed on the Illumina Human HT12 BeadChip whole genome expression microarray, with coverage of 39809 coding transcripts and 3961 non-coding transcripts. Probe intensities were extracted directly from binary IDAT files using the ‘illuminaio’ package (Smith et al., 2013). Background correction and normalization was then performed using ‘limma’ package (Smyth, 2005). An estimate of the fraction of probes with detectable expression (approximately 47% of the probes present on the array) was extracted by comparing the negative control probe intensities with hybridization probe intensities; probes failing this cutoff were filtered from further analysis. An empirical Bayes linear model including treatment and cell-line specific effects was fitted to the filtered data, again using ‘limma’. […] Hierarchial clustering with Euclidean distance and centroid linkage was performed in R (http://www.R-project.org). A heat map of differences (corrected for cell-line-specific effects) was plotted.
# cereblon (CRBN) = cereblon (CRBN) (Homo sapiens, UniProt Q96SW2); details: 48 h
# Description: Cells were lysed in lysis buffer containing 20 mM sodium phosphate (pH 7.4), 150 mM NaCl, 0.1% Triton X-100, […], and 10% glycerol supplement with a protease inhibitor mixture tablet (Roche). Whole cell extracts were resolved by SD-polyacrylamide gel electrophoresis, transferred to nitrocellulose membrane, and probed with the indicated primary antibodies. Bound antibodies were detected with IRdye 680 or 800 (Licor biosciences) and blots were scanned with licor odyssey CLx imaging system (Licor biosciences).
# [5] = test system: panel of hematological cancer cell lines; test: Cell viability, MTS assay, panel of hematological cancer cell lines; format: cell-based; details: 5 days, increasing concentrations
# Description: as §1
# BJAB cells = test: Cell viability, MTS assay; format: cell-based; details: 5 days
# Description: as §1
# [6] = BC-3, BCBL-1 and JSC-1, 5 μM, 24 h
# Sequence of cereblon (CRBN) (Q96SW2 whole entry): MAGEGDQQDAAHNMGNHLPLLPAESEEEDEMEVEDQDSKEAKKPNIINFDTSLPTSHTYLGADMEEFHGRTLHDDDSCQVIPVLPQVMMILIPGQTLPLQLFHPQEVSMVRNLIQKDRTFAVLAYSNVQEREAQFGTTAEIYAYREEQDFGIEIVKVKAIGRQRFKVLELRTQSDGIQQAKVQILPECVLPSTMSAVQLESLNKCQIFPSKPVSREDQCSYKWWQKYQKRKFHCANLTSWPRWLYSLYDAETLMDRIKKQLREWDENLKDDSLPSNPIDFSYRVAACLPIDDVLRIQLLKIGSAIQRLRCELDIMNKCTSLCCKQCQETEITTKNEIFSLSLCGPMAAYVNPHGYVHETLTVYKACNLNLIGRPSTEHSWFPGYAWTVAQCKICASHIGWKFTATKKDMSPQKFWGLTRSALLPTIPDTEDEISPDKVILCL
compound,measurement,setting,value
COc1cc2c(cc1-c1c(C)noc1C)ncc1[nH]c(=O)n([C@H](C)c3ccccn3)c12 [IBET151],synergy of lenalidomide with BRD4 inhibitor (combination index),BC-3 and BCBL-1 cells [1],highly synergistic
Cc1sc2c(c1C)C(c1ccc(Cl)cc1)=N[C@@H](CC(=O)OC(C)(C)C)c1nnc(C)n1-2 [JQ-1],synergy of lenalidomide with BRD4 inhibitor (combination index),BC-3 and BCBL-1 cells [1],highly synergistic
same,median survival,BC-3 cells,42 days
NS(=O)(=O)OC[C@@H]1C[C@@H](n2ccc3c(N[C@H]4CCc5ccccc54)ncnc32)C[C@@H]1O [MLN4924],effect on downregulation of IKZF1 by IMiDs,[2],completely blocked
COc1ccccc1S(=O)(=O)Nc1ccc2c(c1)CN(C)C(=O)N2 [PFI-1],synergy of lenalidomide with BRD4 inhibitor (combination index),BC-3 and BCBL-1 cells [1],highly synergistic
Nc1cccc2c1CN(C1CCC(=O)NC1=O)C2=O (stereo not shown) [lenalidomide],PEL cell lines sensitive within physiologically achievable doses,PEL cell lines; 5 days,5/7
same,IL-6 secretion by BC-3 cells,IL-6,did not have any significant effect
same,"expression of IKKα/β, p100/p52 and RELB proteins",[3],did not have any significant effect
same,mRNA levels of IKZF1,PEL cells; [6],moderately up-regulated
same,"mRNA levels of IRF4, MYC and its target TERT",PEL cells; [6],"down-regulated mildly, and moderately"
same,transcript levels of IFNs and interferon specific genes (ISGs),"PEL cells; BCBL-1 cells, 5 μM, 24 hours",upregulated
same,median survival,BC-3 cells,35 days
same,"outcome of elderly HIV-negative, KSHV-positive PEL patient",PEL,without any symptoms or evidence of disease progression
same,downregulated genes,BC-3 and BCBL-1 cells [4],390 genes
same,upregulated genes,BC-3 and BCBL-1 cells [4],602 genes
same,genes whose expression changed significantly (pFDR<0.05),BC-3 and BCBL-1 cells [4]; both cell lines,992 genes
Nc1cccc2c1C(=O)N(C1CCC(=O)NC1=O)C2=O (stereo not shown) [pomalidomide],PEL cell lines sensitive within physiologically achievable doses,PEL cell lines; 5 days,6/7
same,CRBN level in BCBL-1 cells,cereblon (CRBN),no change
same,level of cereblon in BC-3 cells,cereblon (CRBN),slight decrease
O=C1CCC(N2C(=O)c3ccccc3C2=O)C(=O)N1 (stereo not shown) [thalidomide],effect on the growth of the cell lines,[5],did not have any major effect
IFN-α,effect of recombinant IFN on BJAB,BJAB cells,very little effect
same,"sensitivity of BC-3, BCBL-1 and JSC-1 to recombinant IFN",PEL cell lines; 5 days,highly sensitive
same,sensitivity of the 5 PEL cell lines to recombinant IFN,PEL cell lines,sensitive
IFN-γ: recombinant interferon γ,effect of recombinant IFN on BJAB,BJAB cells,without any significant effect
same,sensitivity of the 5 PEL cell lines to recombinant IFN,PEL cell lines,sensitive
